Results as given in article PMC4157654, “Orthogonal functionalisation of α-helix mimetics” (Organic & Biomolecular Chemistry, 2014).

Legend:
p53/hDM2 interaction = target: T1, p53/hDM2 interaction (Homo sapiens, UniProt Q00987); assay: Fluorescence anisotropy competition assay, p53/hDM2; format: binding; details: hDM2 154 nM, FITC-p53 54.5 nM, phosphate buffer pH 7.5, 200 mM NaCl, 0.02 mg/ml BSA
T1 construct: hDM2 17-126 was diluted into buffer; made in house
Description: The ability of the trimers to inhibit the p53/hDM2 interaction was then investigated using a fluorescence anisotropy competition assay (Fig. 3a). Briefly, a fluorescein-labelled p53 peptide is initially bound to hDM2 and displaced by increasing concentrations of inhibitor leading to a measurable decrease in anisotropy from which IC50 values can be determined, Table 1.
(§1) Fig. 3 Fluorescence anisotropy binding assays in phosphate buffer pH 7.5, 200 mM NaCl, 0.02 mg ml^–1 BSA. (a) p53/hDM2 competition assay hDM2 is fixed as 154 nM and FITC-p53 is at a concentration of 54.5 nM. (b) Direct binding assay of trimer 5 binding to hDM2 or Mcl-1. Compound 5 is fixed at 50 nM.
Figure S6 – Fluorescence anisotropy competition assay testing the inhibition of the trimers against the p53/hDM2 interaction; unfunctionalised trimer 1 and acid, ethylene glycol and coumarin-functionalised trimers 2, 3 and 4. Performed in phosphate buffer pH 7.5, 200 mM NaCl, 0.02 mg/ml BSA. h DM2 is fixed as 154 nM and FITC-p53 is at a concentration of 54.5 nM. […]

Bcl-xL/BAK interaction = target: T2, Bcl-xL/BAK interaction (Homo sapiens, UniProt Q07817); assay: Fluorescence anisotropy competition assay, Bcl-xL/BAK; format: binding; details: Bcl-xL 131 nM, BODIPY-BAK 43 nM, phosphate buffer pH 7.5
T2 construct: made in house
Description: Figure S8 – Fluorescence anisotropy competition assay testing the inhibition of the trimers against the Bcl-x L/BAK interaction; unfunctionalised trimer 1 and acid, ethylene glycol and coumarin-functionalised trimers 2, 3 and 4. Performed in phosphate buffer pH 7.5, 200 mM NaCl, 0.02 mg/ml
BSA. Bcl-x L is fixed as 131 nM and BODIPY-BAK is at a concentration of 43 nM.
The observed increase in anisotropy is likely to be the result of aggregation of the trimer to the BAK […]
tracer and Bcl-x L complex. […]
In all experiments the G factor, or ratio between the efficiency of the S(ame) and P(erpendicular) channels was set to 1. […]

Mcl-1/NOXA-B interaction = target: T3, Mcl-1/NOXA-B interaction (Homo sapiens, UniProt Q07820); assay: Fluorescence anisotropy competition assay, Mcl-1/NOXA-B; format: binding; details: Mcl-1 150 nM, FITC-NOXA-B 50 nM, phosphate buffer pH 7.5
T3 construct: The pet28a His-SUMO Mcl-1 (172-327) construct was over-expressed; His (N, cleaved yes); SUMO (N, cleaved yes); made in house; host or cells: E. coli Rosetta 2
Description: Determination of the binding of FITC-NOXA-B to Mcl-1
The procedure followed was adapted from our previous paper on O-alkylated aromatic oligoamides.1 […]
Briefly: Mcl-1 was serially diluted (446 pM – 5 μM) into a solution of FITC-NOXA-B (25 nM) (40 […]
mM Sodium phosphate buffer pH 7.54, 200 mM NaCl, 0.02 mg/ml of bovine serum albumin) – the […]
total volume of each well was 100 μL, the plates were allowed to incubate at room temperature for 45 […]
minutes. Each experiment was run in triplicate and the fluorescence anisotropy measured using a […]
Perkin Elmer EnVisionTM 2103 MultiLabel plate reader, with excitation at 480 nm and emission at […]
535 nm ([…] bandwidth) and the intensity (Eq. 1) was calculated for each point. This was used to […]
calculate anisotropy (Eq. 2) and plotted to a sigmoidal fit in Origin 7 to determine the minimum and […]
maximum anisotropies (rmin and rmax). Using equation 3, the data for the anisotropy was converted to […]
fraction bound and multiplied by the FITC-NOXA-B concentration then fitted in origin 7 (Eq. 4) to […]
From a plot of intensity (Eq. 1) against […]
concentration of protein λ was calculated to be 1. […]
{(k + x + [FL] - {(k + x + [FL]2 - 4x[FL]} r = anisotropy, I = total intensity, P = perpendicular intensity, S = parallel intensity, Lb = fraction ligand bound, λ = Ibound/Iunbound = 1, [FL] = concentration of fluorescent ligand, k1 = Kd , y = Lb* FITC- […]
NOXA-B and x = [added titrant], G is an instrument factor set to 1.
Figure S4 - Fluorescence anisotropy titration assays for the addition of FITC-NOXA-B to a constant […]
concentration of Mcl-1. Performed in phosphate buffer pH 7.5, 200 mM NaCl, 0.02 mg/ml BSA.
In order to set up displacement assay conditions Mcl-1 and FITC-labelled NOXA-B concentrations […]
were fixed and the tracer peptide was displaced with unlabelled NOXA-B.
Figure S5 – Fluorescence anisotropy competition assay testing the inhibition of unlabelled NOXA-B […]
against the Mcl-1/NOXA-B interaction. Performed in phosphate buffer pH 7.5, 200 mM NaCl, 0.02 […]
mg/ml BSA. Mcl-1 is fixed as 150 nM and FITC-NOXA-B is at a concentration of 50 nM. […]
Figure S7 – Fluorescence anisotropy competition assay testing the inhibition of the trimers against the Mcl-1/NOXA-B interaction; unfunctionalised trimer 1 and acid, ethylene glycol and coumarin- […]
BSA. Mcl-1 is fixed as 150 nM and FITC-NOXA-B is at a concentration of 50 nM.

Mcl-1 = target: T4, Mcl-1 (Homo sapiens, UniProt Q07820); assay: Fluorescence anisotropy direct binding assay, Mcl-1; details: trimer fixed at 50 nM, read-out: Kd obtained through direct titration, Mcl-1
T4 construct: The pet28a His-SUMO Mcl-1 (172-327) construct was over-expressed; His (N, cleaved yes); SUMO (N, cleaved yes); made in house; host or cells: E. coli Rosetta 2
Description: as §1
(§2) The fluorescently tagged trimers 4 and 5 were designed for use in direct binding experiments. We observed that upon ‘click’ reaction, the fluorescence of the coumarin group in trimer 4 was quenched (Fig. S14 ^†). This trimer was therefore tested in the fluorescence anisotropy competition assays as described above (Fig. S7 and S8 ^†). […] Direct binding experiments were performed using both fluorescence anisotropy (Fig. 3b) and microscale thermophoresis[52] (Fig. S12 ^†). […] The same fluorescence anisotropy experiment was then carried out for Mcl-1 and Bcl-xL. […] The absence of selectivity between hDM2 and Mcl-1 in this instance may arise as a consequence of non-specific interactions imparted by the fluorescein group – we note that K d is lower for 5 than the IC50's observed for both 2 and 3 which would support this hypothesis.
Figure S9 - Change of intensity during addition of hDM2 used to calculate λ.
Mcl-1172-327 was diluted into buffer across the 24 wells from 200 μM to 18 nM. […] Ligand bound was calculated from Eq. 3 using λ =
2.31. K d was calculated from Eq. 4. […]

hDM2 [1] = target: T5, hDM2 (Homo sapiens, UniProt Q00987); assay: Fluorescence anisotropy direct binding assay, hDM2; details: trimer fixed at 50 nM, read-out: Kd obtained through direct titration, hDM2
T5 construct: hDM2 17-126 was diluted into buffer; made in house
Description: as §1
The fluorescently tagged trimers 4 and 5 were designed for use in direct binding experiments. We observed that upon ‘click’ reaction, the fluorescence of the coumarin group in trimer 4 was quenched (Fig. S14 ^†). This trimer was therefore tested in the fluorescence anisotropy competition assays as described above (Fig. S7 and S8 ^†). […] Direct binding experiments were performed using both fluorescence anisotropy (Fig. 3b) and microscale thermophoresis[52] (Fig. S12 ^†). […] The same fluorescence anisotropy experiment was then carried out for Mcl-1 and Bcl-xL. […]
Figure S8 – Fluorescence anisotropy competition assay testing the inhibition of the trimers against the Bcl-x L/BAK interaction; unfunctionalised trimer 1 and acid, ethylene glycol and coumarin-functionalised trimers 2, 3 and 4. […]
Direct Binding Assay Development hDM2 17-126 was diluted into buffer across the 24 wells from 400 μM to 36 nM. […] Ligand bound was calculated from Eq. 3 using λ =
2.06. K d was calculated from Eq. 4. […]

Bcl-xL = target: T6, Bcl-xL (Homo sapiens, UniProt Q07817); assay: Fluorescence anisotropy direct binding assay, Bcl-xL; details: trimer fixed at 50 nM
T6 construct: made in house
Description: as §2
Figure S10 - Change of intensity during addition of Mcl-1 used to calculate λ.
Anisotropy Direct Binding to Bcl-x L
Figure S11 – Anisotropy direct binding of Compound 5 to Bcl-x L at a fixed concentration of 5 of 50
nM. Performed in phosphate buffer pH 7.5, 200 mM NaCl, 0.02 mg/ml BSA. […]

hDM2 [2] = target: T5, hDM2; assay: Microscale thermophoresis direct binding to hDM2; details: trimer fixed at 50 nM, phosphate buffer pH 7.5
Description: as §2
Thermophoresis Direct Binding to h DM2
Figure S12 – Direct binding of Compound 5 to hDM2 measured using thermophoresis at a fixed […]
concentration of 5 of 50 nM. […] Performed in phosphate buffer pH 7.5, 200 mM NaCl, […]
The larger errors at lower protein concentration are possibly the result of non-specific binding of the fluorescent trimer to the thermophoresis capillaries.
Fluorescence and Absorbance Characterisation of Trimers 4 and 5 […]
(1 picture or pasted object on this page, not shown here)

## CC(C)CN(C(=O)c1ccc(N(Cc2cccc3ccccc23)C(=O)c2ccc(NCc3ccccc3)cc2)c(OCc2cn(CCOCCOCCOCCO)nn2)c1)c1ccc(C(=O)NCC(=O)O)cc1 [Trimer 3]
p53/hDM2 interaction
  IC50: 42 ± 6 µM
Bcl-xL/BAK interaction
  IC50 Bcl-xL/BAK: No inhibition
Mcl-1/NOXA-B interaction
  IC50: > 70 µM

## CC(C)CN(C(=O)c1ccc(N(Cc2cccc3ccccc23)C(=O)c2ccc(NCc3ccccc3)cc2)c(OCc2cn(CC(=O)O)nn2)c1)c1ccc(C(=O)NCC(=O)O)cc1 [Trimer 2]
p53/hDM2 interaction
  IC50: 40 ± 5 µM
Bcl-xL/BAK interaction
  IC50 Bcl-xL/BAK: No inhibition
Mcl-1/NOXA-B interaction
  IC50: > 70 µM

## CC(C)CN(C(=O)c1ccc(N(Cc2cccc3ccccc23)C(=O)c2ccc(NCc3ccccc3)cc2)c(OCc2cn(CCCNC(=O)c3cc4ccccc4oc3=O)nn2)c1)c1ccc(C(=O)NCC(=O)O)cc1 [Trimer 4]
p53/hDM2 interaction
  IC50: 20.3 ± 0.3 µM
Bcl-xL/BAK interaction
  IC50 Bcl-xL/BAK: No inhibition
Mcl-1/NOXA-B interaction
  IC50: > 70 µM

## CC(C)CN(C(=O)c1ccc(N(Cc2cccc3ccccc23)C(=O)c2ccc(NCc3ccccc3)cc2)cc1)c1ccc(C(=O)NCC(=O)O)cc1 [Trimer 1]
p53/hDM2 interaction
  IC50: 12.3 ± 0.4 µM
Bcl-xL/BAK interaction
  IC50 Bcl-xL/BAK: No inhibition
Mcl-1/NOXA-B interaction
  IC50: > 70 µM

## CC(C)CN(C(=O)c1ccc(N(Cc2cccc3ccccc23)C(=O)c2ccc(NCc3ccccc3)cc2)c(OCc2cn(CCCNC(=S)Nc3ccc(-c4c5ccc(=O)cc-5oc5cc(O)ccc45)c(C(=O)O)c3)nn2)c1)c1ccc(C(=O)NCC(=O)O)cc1 [Trimer 5]
Mcl-1
  Kd: 13 ± 4 µM
hDM2 [1]
  Kd: 20 ± 6 µM
Bcl-xL
  Direct binding to Bcl-xL: no binding was observed
hDM2 [2]
  Kd: 11 ± 2 µM
